{"source": "patent US11524966B1", "about": "(Valo Early Discovery, Inc., priority 2017, dated 2022)", "data": [{"target": "T1, USP25 (USP25-His6, Boston Biochem E-546) (Homo sapiens, UniProt Q9UHP3)", "T1 construct": "His6; purchased Boston Biochem E-546", "T1 sequence (Q9UHP3 1-1055)": "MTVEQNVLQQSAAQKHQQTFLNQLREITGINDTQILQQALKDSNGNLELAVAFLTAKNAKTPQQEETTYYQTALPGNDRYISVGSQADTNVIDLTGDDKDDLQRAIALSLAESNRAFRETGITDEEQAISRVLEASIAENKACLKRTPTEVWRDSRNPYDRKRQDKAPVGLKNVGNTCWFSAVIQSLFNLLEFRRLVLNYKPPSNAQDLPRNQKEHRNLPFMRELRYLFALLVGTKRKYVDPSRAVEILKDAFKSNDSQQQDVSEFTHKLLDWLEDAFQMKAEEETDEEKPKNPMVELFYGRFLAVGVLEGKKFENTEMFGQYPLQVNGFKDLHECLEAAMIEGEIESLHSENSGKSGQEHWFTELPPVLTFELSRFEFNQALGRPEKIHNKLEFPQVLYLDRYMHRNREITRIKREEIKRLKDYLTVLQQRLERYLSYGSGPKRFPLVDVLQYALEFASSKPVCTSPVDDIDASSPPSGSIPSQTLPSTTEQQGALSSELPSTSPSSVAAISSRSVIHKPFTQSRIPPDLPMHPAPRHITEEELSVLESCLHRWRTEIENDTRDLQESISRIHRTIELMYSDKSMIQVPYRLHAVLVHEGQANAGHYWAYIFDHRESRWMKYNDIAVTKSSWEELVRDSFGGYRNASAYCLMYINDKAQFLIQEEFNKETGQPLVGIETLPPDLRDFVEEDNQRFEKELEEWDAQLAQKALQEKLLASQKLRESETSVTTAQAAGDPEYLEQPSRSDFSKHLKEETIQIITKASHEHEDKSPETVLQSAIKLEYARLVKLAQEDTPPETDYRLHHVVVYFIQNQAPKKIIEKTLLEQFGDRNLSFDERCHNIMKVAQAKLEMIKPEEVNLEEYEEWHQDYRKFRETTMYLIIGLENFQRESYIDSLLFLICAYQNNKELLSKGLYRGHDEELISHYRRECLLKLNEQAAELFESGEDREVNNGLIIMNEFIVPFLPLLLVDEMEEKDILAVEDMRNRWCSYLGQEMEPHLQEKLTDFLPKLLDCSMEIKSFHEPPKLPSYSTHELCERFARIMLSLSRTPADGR", "test": "Ubiquitin-Rhodamine 110 Assay for USP25 Activity, Example A-2", "format": "biochemical", "settings": "Ubiquitin-Rhodamine 110 assay, Example A-2; read-out: USP25 A-2 IC50 range", "in_short": "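75 pM USP25-His6 was preincubated 30 min with compound (10-point 3-fold series, 25 μM–1.3 nM) in pH 8.0 Tris buffer with BME, BGG and Triton X-100. Then 25 nM Ub-Rh110 (<<Km) was added for 45 min at room temperature, stopped with citric acid, fluorescence read at 485/535 nm, IC50 by 4-parameter fit.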", "units": {"IC50": "nM"}, "values": [{"smiles": "COC[C@@H]1CN(c2ccc3c(c2)OC[C@H](NC(=O)c2sc4nc(C)ccc4c2N)C3)C[C@@H]1N", "note": "[Example 161, 3-amino-N-[(3R)-7-[(3R,4R)-3-amino-4(methoxymethyl)pyrrolidin-1-yl]-3,4-dihydro-2H-1-benzopyran-3-yl]-6-methylthieno[2,3-b]pyridine-2-carboxamide]", "IC50": "200 to 2000"}, {"smiles": "COC[C@H]1CN(c2ccc3c(c2)OC[C@H](NC(=O)c2sc4nc(C)ccc4c2N)C3)C[C@H]1N", "note": "[Example 162, 3-amino-N-[(3R)-7-[(3S,4S)-3-amino-4-(methoxymethyl)pyrrolidin-1-yl]-3,4-dihydro-2H-1-benzopyran-3-yl]-6-methylthieno[2,3-b]pyridine-2-carboxamide]", "IC50": "50 to 200"}, {"smiles": "COC[C@@H]1CN(c2ccc3c(c2)OC[C@H](NC(=O)c2sc4nc(C)ccc4c2N)C3)C[C@H]1N", "note": "[Example 163, 3-amino-N-[(3R)-7-[(3S,4R)-3-amino-4-(methoxymethyl)pyrrolidin-1-yl]-3,4-dihydro-2H-1-benzopyran-3-yl]-6-methylthieno[2,3-b]pyridine-2-carboxamide]", "IC50": "200 to 2000"}, {"smiles": "COC[C@H]1CN(c2ccc3c(c2)OC[C@H](NC(=O)c2sc4nc(C)ccc4c2N)C3)C[C@@H]1N", "note": "[Example 164, 3-amino-N-[(3R)-7-[(3R,4S)-3-amino-4-(methoxymethyl)pyrrolidin-1-yl]-3,4-dihydro-2H-1-benzopyran-3-yl]-6-methylthieno[2,3-b]pyridine-2-carboxamide]", "IC50": "200 to 2000"}, {"smiles": "Cc1ccc2c(N)c(C(=O)N[C@H]3COc4cc(N5CC[C@@H]6CNC[C@@H]65)ccc4C3)sc2n1", "note": "[Example 165, N-[(3R)-7-[(3aR,6aR)-octahydropyrrolo[2,3-c]pyrrol-1-yl]-3,4-dihydro-2H-1-benzopyran-3-yl]-3-amino-6-methylthieno[2,3-b]pyridine-2-carboxamide]", "IC50": "50 to 200"}, {"smiles": "Cc1ccc2c(N)c(C(=O)N[C@H]3COc4cc(N5CC[C@H]6CNC[C@H]65)ccc4C3)sc2n1", "note": "[Example 166, N-[(3R)-7-[(3aS,6aS)-octahydropyrrolo[2,3-c]pyrrol-1-yl]-3,4-dihydro-2H-1-benzopyran-3-yl]-3-amino-6-methylthieno[2,3-b]pyridine-2-carboxamide]", "IC50": "50 to 200"}, {"smiles": "Cc1ccc2c(N)c(C(=O)N[C@H]3COc4cc(N5C[C@H](N)[C@H](C(F)F)C5)ccc4C3)sc2n1", "note": "[Example 167, 3-amino-N-[(3R)-7-[(3R,4R)-3-amino-4-(difluoromethyl)pyrrolidin-1-yl]-3,4-dihydro-2H-1-benzopyran-3-yl]-6-methylthieno[2,3-b]pyridine-2-carboxamide]", "IC50": "200 to 2000"}, {"smiles": "Cc1ccc2c(N)c(C(=O)N[C@H]3COc4cc(N5C[C@@H](N)[C@@H](C(F)F)C5)ccc4C3)sc2n1", "note": "[Example 168, 3-amino-N-[(3R)-7-[(3S,4S)-3-amino-4-(difluoromethyl)pyrrolidin-1-yl]-3,4-dihydro-2H-1-benzopyran-3-yl]-6-methylthieno[2,3-b]pyridine-2-carboxamide]", "IC50": "200 to 2000"}, {"smiles": "Cc1ccc2c(N)c(C(=O)N[C@H]3COc4cc(N5CC6CCC(C5)N6)cc(F)c4C3)oc2n1", "note": "[Example 170, 3-amino-N-[(3R)-7-{3,8-diazabicyclo[3.2.1]octan-3-yl}-5-fluoro-3,4-dihydro-2H-1-benzopyran-3-yl]-6-methylfuro[2,3-b]pyridine-2-carboxamide]", "IC50": "> 2000"}, {"smiles": "Cc1ccc2c(N)c(C(=O)N[C@H]3CCc4cc(N5CC6CCC(C5)N6)ccc4C3)oc2n1", "note": "[Example 171, 3-amino-N-[(2S)-6-{3,8-diazabicyclo[3.2.1]octan-3-yl]-1,2,3,4-tetrahydronaphthalen-2-yl]-6-methylfuro[2,3-b]pyridine-2-carboxamide]", "IC50": "> 2000"}, {"smiles": "Cc1ccc2c(N)c(C(=O)N[C@H]3COc4c(F)c(N5CC6CCC(C5)N6)cc(F)c4C3)oc2n1", "note": "[Example 172, 3-amino-N-[(3R)-7-{3,8-diazabicyclo[3.2.1]octan-3-yl}-5,8-difluoro-3,4-dihydro-2H-1-benzopyran-3-yl]-6-methylfuro[2,3-b]pyridine-2-carboxamide]", "IC50": "> 2000"}, {"smiles": "Cc1ccc2c(N)c(C(=O)N[C@H]3COc4nc(N5CC6CCC(C5)N6)ccc4C3)sc2n1", "note": "[Example 173, 3-amino-N-[(3R)-7-{3,8-diazabicyclo[3.2.1]octan-3-yl]-2H,3H,4H-pyrano[2,3-b]pyridin-3-yl]-6-methylthieno[2,3-b]pyridine-2-carboxamide]", "IC50": "200 to 2000"}, {"smiles": "CO[C@H]1CN(c2cc(F)c3c(c2C#N)OC[C@H](NC(=O)c2sc4nc(C)cnc4c2N)C3)C[C@@H]1N", "note": "[Example 174, 7-amino-N-[(3R)-7-[(3S,4S)-3-amino-4-methoxypyrrolidin-1-yl]-8-cyano-5-fluoro-3,4-dihydro-2H-1-benzopyran-3-yl]-3-methylthieno[2,3-b]pyrazine-6-carboxamide]", "IC50": "> 2000"}, {"smiles": "CO[C@H]1CN(c2cc(F)c3c(c2C#N)OC[C@H](NC(=O)c2sc4nc(C)ccc4c2N)C3)C[C@@H]1N", "note": "[Example 175, 3-amino-N-[(3R)-7-[(3S,4S)-3-amino-4-methoxypyrrolidin-1-yl]-8-cyano-5-fluoro-3,4-dihydro-2H-1-benzopyran-3-yl]-6-methylthieno[2,3-b]pyridine-2-carboxamide]", "IC50": "> 2000"}, {"smiles": "CO[C@H]1CN(c2cc3c(cc2C#N)C[C@@H](NC(=O)c2sc4nc(C)cnc4c2N)CO3)C[C@@H]1N", "note": "[Example 176, 7-amino-N-[(3R)-7-[(3S,4S)-3-amino-4-methoxypyrrolidin-1-yl]-6-cyano-3,4-dihydro-2H-1-benzopyran-3-yl]-3-methylthieno[2,3-b]pyrazine-6-carboxamide]", "IC50": "50 to 200"}]}]}
